Earlier results, collected in patent US6338859B1, “Polymeric micelle compositions” (Labopharm Inc., priority 2000, dated 2002).
Several values for one entry are separate records, joined by “and”; a condition that tells them apart may be missing. Equal values may be shown once. Read-outs that look alike come from different tables or passages of the source. Marks after values point to notes of the source that are not given here.

Columns and labels:
[1] = not given; remark: listed apart in the source
[2] = polymer PEO-PBLA, physical entrapment
[3] = polymer PEO-PE, physical entrapment
[4] = polymer PEO-P(Asp), chemical bonding

Molecule: C[C@@H]1[C@H](O)[C@@H](C)/C=C/C=C/C=C/C=C/C=C/C=C/C=C/[C@H](O[C@@H]2O[C@H](C)[C@@H](O)[C@H](N)[C@@H]2O)C[C@@H]2O[C@](O)(C[C@@H](O)C[C@@H](O)[C@H](O)CC[C@@H](O)C[C@@H](O)CC(=O)O[C@H]1C)C[C@H](O)[C@H]2C(=O)O [Amphotericin B]
- Micelle size with drug [2]: 26 nm
- hemolytic activity ([1]; after incorporation into PEO-PBLA micelles): decrease

Molecule: KRN-5500
- Micelle size with drug (polymer PEO-(C16, BLA), physical entrapment, after the sonication of PEO(C16, BLA) aggregates): 71* nm

Molecule: O=C(CCCN1CCC(O)(c2ccc(Cl)cc2)CC1)c1ccc(F)cc1 [Haloperidol]
- Micelle size with drug (polymer PEO-PPO-PEO, physical entrapment): 15 nm

Molecule: Cc1cc(N)c2ccccc2[n+]1CCCCCCCCCC[n+]1c(C)cc(N)c2ccccc21 [Dequalinium]
- Micelle size with drug [3]: 15 nm

Molecule: COc1cccc2c1C(=O)c1c(O)c3c(c(O)c1C2=O)C[C@@](O)(C(=O)CO)C[C@@H]3O[C@H]1C[C@H](N)[C@H](O)[C@H](C)O1 [DOX, doxorubicin]
- Micelle size with drug [4]: 14-131 nm and 17-42 nm
- Micelle size with drug (polymer PEO-P(Asp), chemical bonding, listed as Doxirubicin (DOX)): 50 nm
- Micelle size with drug [2]: 30 nm and 37 nm
- retention of drug in micelles ([1]; in PEO-PBLA after freeze drying and reconstitution in water, iodide quenching): retained

Molecule: Gd-DTPA-PE
- Micelle size with drug [3]: 20 nm

Molecule: N.N.[Cl][Pt][Cl] [Cisplatin]
- Micelle size with drug [4]: 16 nm

Molecule: COc1ccc2c(c1)c(CC(=O)O)c(C)n2C(=O)c1ccc(Cl)cc1 [Indomethacin]
- Micelle size with drug [2]: 25-29 nm
- Micelle size with drug (polymer PEO-PCL, physical entrapment): 145-165 nm and 114-156 nm

Molecule: ^111In-DTPA-SA
- Micelle size with drug [3]: 20 nm

B1: Soybean trypsin inhibitor: Soybean trypsin inhibitor physically entrapped in PEO-PE micelles (protein, UniProt P01070 25-205, looked up)
Trypsin inhibitor A: DFVLDNEGNPLENGGTYYILSDITAFGGIRAAPTGNERCPLTVVQSRNELDKGIGTIISSPYRIRFIAEGHPLSLKFDSFAVIMLCVGIPTEWSVVEDLPEGPAVKIGENKDAMDGWFRLERVSDDEFNNYKLVFCPQQAEDDKCGDIGISIDHDDGTRRLVVSKNKPLVVQFQKLDKESL
modifications: entrapped in PEO-PE micelles
- Micelle size with drug [3]: 15 nm
